Values joined by “and” are separate entries in the source; they are usually repeats but may differ in a detail not shown here. Equal values may be shown once. Read-outs that look alike come from different tables or passages of the source.
Assays:
[1] = test system: HepG2 cells; experiment: MTT cytotoxicity assay, 72 h; format: cell-based, Human
Procedure: (§1) Human hepatoma (HepG2) and fibroblast-like monkey kidney cells (COS-7) were cultured in Dulbecco’s Modified Eagle Medium supplemented with 10% heat-inactivated fetal bovine serum and gentamycin (40 mg/L) at 37°C in a 5% CO2 atmosphere. Cytotoxicity of test compounds was measured by metabolic reduction of mitochondrial enzymes using the MTT assay (3-[4,5-dimethyl-thiazol-2-yl]-2,5-diphenyltetrazolium chloride). Cells were seeded at 10^5 cells/well in 96-well plates and incubated for 72 hours in the presence of a 2-fold 12-point serial dilution of drugs along with drug-free controls. After adding 15 μL of MTT (5 mg/mL) to the wells, plates were centrifuged at 317g for 5 minutes and the pellet was resuspended in isopropanol. Absorbance was measured at 570 nm (CLARIOStar, Labtech BMG). Cell viability was determined by formazan production, and was expressed as a percentage of untreated control wells.

[2] = MTT cytotoxicity assay, 72 h; format: cell-based, Human; conditions: human, MTT, 72 h, N = 3
Procedure: as §1

[3] = test system: COS-7 cells; experiment: MTT cytotoxicity assay, 72 h; format: cell-based, monkey
Procedure: as §1

[4] = MTT cytotoxicity assay, 72 h; format: cell-based, monkey; conditions: monkey, MTT, 72 h, N = 3
Procedure: as §1

[5] = test system: P. falciparum 3D7 ABS parasites; experiment: ABS parasite survival assay, 72 h, flow cytometry; format: cell-based; conditions: Plasmodium falciparum, 3D7, ABS parasites, N = 3; read-out: IC50 3D7
Procedure: (§2) P. falciparum ABS parasites were cultured at 3% hematocrit in human O^+ RBCs in RPMI-1640 media supplemented with 25 mM HEPES, 50 mg/L hypoxanthine, 2 mM L-glutamine, 0.21% sodium bicarbonate, 0.5% (w/v) AlbuMAXII (Invitrogen) and 10 μg/mL gentamycin. Culture flasks were kept in modular incubator chambers (Billups-Rothenberg) in a 5% O2, 5% CO2, and 90% N2 atmosphere at 37°C. Synchronized ring-stage parasites were obtained by two consecutive rounds of treatment with 5% D-sorbitol in 48-hour intervals. […] This was done by exposing cultures at 1% hematocrit and 0.3% parasitemia in 96-well plates in the presence of drugs in a two-fold 10 or 12-point serial dilution in duplicate along with drug-free controls. After a 72-hour incubation, parasite survival was assessed by flow cytometry on an iQue flow cytometer (Sartorius) using SYBR Green and MitoTracker Deep Red FM (Life Technologies) as nuclear stain and vital dye, respectively. Parasite survival was determined as a percentage relative to drug-free control. IC50 values were interpolated from log concentration versus response curves in Prism 9 (GraphPad Prism Software Inc.).

[6] = test system: P. falciparum Dd2 ABS parasites; experiment: ABS parasite survival assay, 72 h, flow cytometry; format: cell-based; conditions: Plasmodium falciparum, DD2, ABS parasites, N = 3; read-out: IC50 Dd2
Procedure: as §2

[7] = test system: Hz formation in ABS P. falciparum 3D7 parasites; experiment: Cellular heme fractionation assay; format: cell-based, Plasmodium falciparum; conditions: for %Hb / %Heme / %Hemozoin / Hb Fe (fg/troph) / Heme Fe (fg/troph) / Hemozoin Fe (fg/troph) / Total Fe (fg/troph): rep 1-4 and Mean
Procedure: A heme fractionation assay was used to measure the inhibition of Hz formation in cultured ABS P. falciparum 3D7 parasites as previously described. […] Late trophozoites were harvested after 32 hours of incubation by lysing RBCs with 0.05% saponin followed by multiple washes with 1 × PBS (pH 7.5) to remove any residual traces of hemoglobin. The parasite pellet was resuspended in PBS and the total number of trophozoites isolated was quantified using flow cytometry. Contents of the trophozoite pellet were released by hypotonic lysis and sonication. After centrifugation, treatments with HEPES buffer (pH 7.4), sodium dodecyl sulfate, pyridine, and NaOH, allowed us to separate the fractions corresponding to the different heme species of interest. A microplate reader was employed to measure the UV-visible spectrum of each heme fraction as a Fe(III)heme-pyridine complex. Fractions of undigested hemoglobin, “free” heme, and Hz were quantified using a heme standard curve based on the mass of each heme-Fe species per mature trophozoite (fg/cell), obtained by dividing the total amount of each heme species by the corresponding number of parasites in that fraction as determined by flow cytometry. Statistical comparisons and analyses for trends employed Students’ t-tests (GraphPad Prism version 9).

[8] = 0.5–3.0 × IC50 vs untreated control

CCOc1cc2nccc(Nc3cc(OC)c(OC)c(OC)c3)c2cc1OCC [LDT-620]
SI (CC50 HepG2 / IC50 3D7) [1]: 3.8
CC50 at 72 h ([2]; HepG2 cells): 1600 ± 100 nM
SI (CC50 COS-7 / IC50 3D7) [3]: 6.3
CC50 at 72 h ([4]; COS-7 cells): 2600 ± 300 nM
IC50 [5]: 400 ± 50 nM
IC50 [6]: 500 ± 100 nM

C[C@H]1Cc2c([nH]c3cc(Cl)c(F)cc23)[C@@]2(N1)C(=O)Nc1ccc(Cl)cc12 [KAE609, cipargamin]
%Hb ([7]; 0.5x): 3.6542% and 7.0007% and 6.1505% and 3.0130%
%Heme ([7]; 0.5x): 5.3042% and 5.9396% and 6.0562% and 6.0905%
%Hemozoin ([7]; 0.5x): 91.0416% and 87.0597% and 87.7934% and 90.8965%
Hb Fe (fg/troph) ([7]; 0.5x): 2.0363 fg/troph and 3.5589 fg/troph and 3.2475 fg/troph and 1.8499 fg/troph
Heme Fe (fg/troph) ([7]; 0.5x): 2.9557 fg/troph and 3.0195 fg/troph and 3.1977 fg/troph and 3.7394 fg/troph
Hemozoin Fe (fg/troph) ([7]; 0.5x): 50.7323 fg/troph and 44.2576 fg/troph and 46.3552 fg/troph and 55.8088 fg/troph
Total Fe (fg/troph) ([7]; 0.5x): 55.72 fg/troph and 50.84 fg/troph and 52.80 fg/troph and 61.40 fg/troph
effect on Hz levels [7, 8]: did not affect Hz formation
effect on undigested Hb [7, 8]: subtle yet significant increment in Hb levels observed under 2 and 2.5 × IC50
%Hb ([7]; 1x): 5.1693% and 5.1920% and 5.0902% and 5.1212%
%Heme ([7]; 1x): 5.7735% and 5.8398% and 5.6460% and 5.8813%
%Hemozoin ([7]; 1x): 89.0573% and 88.9682% and 89.2638% and 88.9975%
Hb Fe (fg/troph) ([7]; 1x): 2.9437 fg/troph and 3.1428 fg/troph and 2.7576 fg/troph and 3.0371 fg/troph
Heme Fe (fg/troph) ([7]; 1x): 3.2877 fg/troph and 3.5349 fg/troph and 3.0588 fg/troph and 3.4878 fg/troph
Hemozoin Fe (fg/troph) ([7]; 1x): 50.7140 fg/troph and 53.8534 fg/troph and 48.3591 fg/troph and 52.7792 fg/troph
%Hb ([7]; 2x): 6.5332% and 6.7594% and 6.3629% and 6.9166%
%Heme ([7]; 2x): 5.4724% and 5.9940% and 4.2854% and 5.7076%
%Hemozoin ([7]; 2x): 87.9944% and 87.2465% and 89.3517% and 87.3758%
Hb Fe (fg/troph) ([7]; 2x): 4.0073 fg/troph and 4.4606 fg/troph and 3.7570 fg/troph and 4.7143 fg/troph
Heme Fe (fg/troph) ([7]; 2x): 3.3567 fg/troph and 3.9555 fg/troph and 2.5303 fg/troph and 3.8902 fg/troph
Hemozoin Fe (fg/troph) ([7]; 2x): 53.9742 fg/troph and 57.5747 fg/troph and 52.7581 fg/troph and 59.5545 fg/troph
Total Fe (fg/troph) ([7]; 2x): 61.34 fg/troph and 65.99 fg/troph and 59.05 fg/troph and 68.16 fg/troph
%Hb ([7]; 2.5x): 5.1788% and 7.1992% and 6.5284% and 7.3663%
%Heme ([7]; 2.5x): 6.6682% and 5.2565% and 5.5507% and 5.3264%
%Hemozoin ([7]; 2.5x): 88.1530% and 87.5443% and 87.9209% and 87.3073%
Hb Fe (fg/troph) ([7]; 2.5x): 2.9541 fg/troph and 4.0082 fg/troph and 4.1259 fg/troph and 4.4913 fg/troph
Heme Fe (fg/troph) ([7]; 2.5x): 3.8037 fg/troph and 2.9266 fg/troph and 3.5080 fg/troph and 3.2476 fg/troph
Hemozoin Fe (fg/troph) ([7]; 2.5x): 50.2849 fg/troph and 48.7406 fg/troph and 55.5658 fg/troph and 53.2328 fg/troph
Total Fe (fg/troph) ([7]; 2.5x): 57.04 fg/troph and 55.68 fg/troph and 63.20 fg/troph and 60.97 fg/troph
%Hb ([7]; 3x): 3.4597% and 3.9960% and 5.9128% and 5.9841%
%Heme ([7]; 3x): 6.5997% and 5.1160% and 5.1737% and 5.1489%
%Hemozoin ([7]; 3x): 89.9406% and 90.8880% and 88.9135% and 88.8671%
Heme Fe (fg/troph) ([7]; 3x): 3.6368 fg/troph and 3.2102 fg/troph and 3.3952 fg/troph and 3.4079 fg/troph
Hemozoin Fe (fg/troph) ([7]; 3x): 49.5627 fg/troph and 57.0293 fg/troph and 58.3496 fg/troph and 58.8192 fg/troph

COc1cc(Nc2ccnc3ccc(Br)cc23)cc(OC)c1OC [LDT-619]
SI (CC50 HepG2 / IC50 3D7) [1]: 0.1
CC50 at 72 h ([2]; read-out: CC50 HepG2): 300 ± 40 nM
SI (CC50 COS-7 / IC50 3D7) [3]: 0.7
CC50 at 72 h ([4]; read-out: CC50 COS-7): 3300 ± 300 nM
IC50 [5]: > 5000 nM
IC50 [6]: > 5000 nM

COc1cc(Nc2ccnc3ccccc23)cc(OC)c1 [LDT-621]
SI (CC50 HepG2 / IC50 3D7) [1]: 0.2
CC50 at 72 h ([2]; HepG2 cells): 500 ± 100 nM
SI (CC50 COS-7 / IC50 3D7) [3]: 2.8
CC50 at 72 h ([4]; COS-7 cells): 6500 ± 4200 nM
IC50 [5]: 2200 ± 100 nM
IC50 [6]: 2000 ± 300 nM

COc1cc(Nc2ccnc3cc(Br)ccc23)cc(OC)c1OC [LDT-624]
SI (CC50 HepG2 / IC50 3D7) [1]: 20.6
CC50 at 72 h ([2]; HepG2 cells): 32500 ± 7500 nM
SI (CC50 COS-7 / IC50 3D7) [3]: 26.1
CC50 at 72 h ([4]; COS-7 cells): 41300 ± 17200 nM
IC50 [5]: 1600 ± 700 nM
IC50 [6]: 1000 ± 200 nM

COc1ccc(Nc2ccnc3ccc(F)cc23)cc1OC [LDT-625]
SI (CC50 HepG2 / IC50 3D7) [1]: 10.3
CC50 at 72 h ([2]; HepG2 cells): 33300 ± 3800 nM
SI (CC50 COS-7 / IC50 3D7) [3]: 6.2
CC50 at 72 h ([4]; COS-7 cells): 20400 ± 1300 nM
IC50 [5]: 3200 ± 800 nM
IC50 [6]: 2900 ± 500 nM

COc1ccc(Nc2ccnc3ccccc23)cc1OC [LDT-618]
SI (CC50 HepG2 / IC50 3D7) [1]: 16.8
CC50 at 72 h ([2]; HepG2 cells): 29800 ± 9700 nM
SI (CC50 COS-7 / IC50 3D7) [3]: > 56.5
CC50 at 72 h ([4]; COS-7 cells): > 100000 nM
IC50 [5]: 1800 ± 100 nM
IC50 [6]: 1900 ± 200 nM

— paper PMC11521309, “A novel 4-aminoquinoline chemotype with multistage antimalarial activity and lack of cross-resistance with PfCRT and PfMDR1 mutants” (PLOS Pathogens, 2024)
